Measured values published in patent US20170191031A1, “SYSTEMS AND METHODS FOR STEM CELL DIFFERENTIATION” (University of Oslo, priority 2014, published 2017).
Non-standard residues stand in square brackets, D forms with d. Residues, ends and D or L forms follow the SMILES beside them. *: point of attachment. Hexanoyl = CCCCCC(=O)*; Ahx = NCCCCCC(=O)O

Experiments:
Format in all cases: cell-based, human
hESC line H1 [1] = assay: Phase I definitive endoderm differentiation, FOXA2/SOX17 immunofluorescence and cell counting; details: 24 hour treatment, Phase I endpoint 48 hours, CHIR99021 3 μM, BIO 1 μM, Wnt3a 50 ng/ml
Excerpt: (§1) The scale bars represent 100 μm.
as §1

[2] = tested on: hESC line H1 and hiPSC line Detroit; assay: Definitive endoderm differentiation in 3D alginate scaffold, TaqMan; details: cells encapsulated in alginate scaffold; Phase I conditions RPMI-B27+Chir
Method: Differentiation of the hESC line H1 and the hiPSC line Detroit was performed in a 3D environment by encapsulating the cells in an alginate scaffold. The cells were cultured using the same conditions as in 2D with the exception that the spheres were cultured for 6 days in human ES media, then transferred to Phase I conditions (RPMI-B27+Chir). All pluripotency marks were maintained as assessed by TaqMan, to the point prior to transition to Phase I. The ability of hPSCs to be directed to definitive endoderm (DE) in 3D was assessed via the DE marks SOX17 and FOXA2. […] Further differentiation through phases II and III is performed as described above.

[3] = tested on: hESC lines 207 and 360, hiPSC lines Detroit; assay: Phase I definitive endoderm differentiation of other pluripotent lines
Method: Cells were seeded onto Matrigel coated 12 well plates in E8 medium at a 1:3-1:4 split ratio, and allowed to adhere for 24 hours at 37° C./5% CO2. It should be noted the optimal cell density for each line needs to be established. The cells were washed with phosphate buffered saline (PBS) before being treated with differentiation media. The differentiation protocol utilises similar base media to a well-established differentiation protocol (Hay et al., Proc Natl Acad Sci USA 105, 12301-12306 2008), with replacement of all growth factors with small molecules, and minor adjustments in timing. The protocol incorporates several stages (FIG. 1) utilising different small molecules.
(§2) Phase I of differentiation consists of a 24 hour treatment with RPMI-B27±insulin (RPMI 1640 GlutaMAX+B27 supplement, both from Life Technologies) plus 3-4 μM CHIR99021 (Stemgent), followed by a 24 hour treatment with RPMI-B27 alone. Phase II consists of 5 days of treatment with Knockout DMEM containing 20% Knockout Serum Replacement, 2 mM GlutaMAX, 100 μM 2-mercaptoethanol, 1×MEM non-essential amino acids (Life Technologies) and 1% DMSO (Sigma-Aldrich). Phase III consists of 10 days of treatment with Leibovitz L-15 media containing 8.3% tryptose phosphate broth, 10 μM hydrocortisone 21-hemisuccinate, 50 μg/ml sodium-L-ascorbate, 100 nM dexamethasone (all from Sigma-Aldrich), 0.58% insulin-transferrin-selenium (ITS), 2 mM GlutaMAX (all from Life Technologies), 8.3% foetal bovine serum (Lonza), and 100 nM Dihexa (kind gift from Prof. Joseph Harding, Washington State University). During Phases II and III cells are fed every 48 hours. Cells were photographed during differentiation using a Zeiss phase contrast microscope and ZEN software. The scale bars represent 100 μm.
Cells were washed with PBS before being fixed with a 10 minute treatment of ice cold methanol. Fixed cells were washed in 0.1% PBS-T: PBS containing 0.1% Tween 20 (Sigma-Aldrich). […] Cells were imaged using a Zeiss Observer Fluorescence Microscope and Axiovision imaging software. […]
(§3) Immuno-stained cells were quantified for expression of stage specific markers by manual counting. For Phase I, FOXA2 and SOX17 were counted separately. For Phase II, cells were scored positively if the nucleus was stained for HNF4A and the cytoplasm was stained for AFP. For Phase III, cells were scored positively if the nucleus was HNF4A positive and the cytoplasm was ALB positive. Phase III cells were also quantified for AFP and A1AT staining and were counted as positive if the cytoplasm was stained. […] A minimum of 10 fields of view were quantified, with a minimum of 250 cells counted per field of view. Percentages are presented as the average of all field quantifications, plus or minus the standard deviation across all fields.

hESC line H1 [4] = assay: Phase I gene expression by TaqMan RT-qPCR
Method: as §2, with “Cells were photographed during differentiation using a Zeiss phase contrast microscope and ZEN software. The scale bars represent 100 μm.” left out
RNA was isolated from cells using TRIzol according to manufacturer's instructions and quantified using a spectrophotometer (NanoDrop). cDNA was prepared using the High Capacity Reverse Transcription kit and a thermal cycler (both from Life Technologies). […] Expression levels were quantified relative to ACTB and normalised to undifferentiated pluripotent control samples or definitive endoderm cells as specified. […]

hepatic progenitors = assay: Phase III hepatocyte maturation, optimisation of concentrations; details: established in HepatoZYME medium; morphology and function
Method: as §2, with “Phase III consists of 10 days of treatment with Leibovitz L-15 media containing 8.3% tryptose” left out

[5] = tested on: hESC line 207 and hiPSC Detroit RA, RB, RC derived definitive endoderm; assay: Phase II hepatic specification of other pluripotent lines; details: all lines tested; Phase II conditions, 5 days
Method: Phase I of differentiation consists of a 24 hour treatment with RPMI-B27±insulin (RPMI 1640 GlutaMAX+B27 supplement, both from Life Technologies) plus 3-4 μM CHIR99021 (Stemgent), followed by a 24 hour treatment with RPMI-B27 alone. Phase II consists of 5 days of treatment with Knockout DMEM containing 20% Knockout Serum Replacement, 2 mM GlutaMAX, 100 μM 2-mercaptoethanol, 1×MEM non-essential amino acids (Life Technologies) and 1% DMSO (Sigma-Aldrich). […]
Cells were washed with PBS before being fixed with a 10 minute treatment of ice cold methanol. […] Cells were imaged using a Zeiss Observer Fluorescence Microscope and Axiovision imaging software. […]
as §3

CYP1A2 = assay: Cytochrome P450 induction, P450-Glo CYP1A2; details: 100 μM, 72 hours
Method: Induction of cytochrome P450 activity was assessed in both small molecule and growth factor derived HLCs. CYP1A2 activity was detected using the P450-Glo CYP1A2 Induction/Inhibition Assay kit (Promega, Cat. no. V8422). […] Assays were performed according to the manufacturer's instructions for non-lytic P450-Glo assays using cultured cells in monolayers. […] Briefly, cells were cultured to day 20 of the differentiation protocol and Rifampicin or Omeprazole was added to L-15 culture medium, which was formulated as described above, but without dexamethasone or hydrocortisone. […] Briefly, for CYP1 A2 the substrate Luciferin-1A2 was diluted to 6 μM in PBS (calcium/magnesium free) containing 3 mM freshly prepared salicylamide (Sigma). The Luciferin substrate was added to each well (1 ml per well of a 6 well plate), and incubated for 60 minutes followed by detection. […] Basal activity was assessed as above with the omission of inducers. In addition, no cell media controls were included. Finally as a negative control, the pluripotent hESC line H1 was assayed for CYP activity as described above. All data was normalised to total protein content in each well. Data is presented as the mean values of 6 independent experiments; error bars represent standard deviation.

H1 smHLCs = assay: Uptake of indocyanine green; details: 1 mg/ml, 1 hour; phase microscopy
Method: In order to assess glycogen storage, differentiated cells were fixed and treated with a periodic acid-Schiff staining kit (Sigma-Aldrich) in accordance with manufacturer's instructions and imaged using a Zeiss phase contrast microscope and ZEN software. The scale bars represent 100 μm. The cellular uptake of indocyanine green was assessed. Briefly, ICG (Sigma-Aldrich) was reconstituted in water and used at a final concentration of 1 mg/ml. Cells were incubated in media supplemented with ICG for 1 hour, the cells were then washed with PBS and imaged using a Zeiss phase contrast microscope and ZEN software.

[6] = all lines (207, Detroit RA, RB, RC), 4 μM in RPMI-B27 minus insulin, 48 hours

With O=C1Nc2cc(Br)ccc2/C1=C1/Nc2ccccc2/C1=N\O [BIO, (2′Z,3′E)-6-Bromoindirubin-3′-oxime] the “Expression of DE proteins FOXA2 and SOX17 by immunofluorescence” value (“Expression … by immunofluorescence” below) (hESC line H1 [1]) was “produce FOXA2/SOX17 positive cells”.

For Cc1c[nH]c(-c2cnc(NCCNc3ccc(C#N)cn3)nc2-c2ccc(Cl)cc2Cl)n1 [CHIR99021], the “Induction of SOX17 and FOXA2 in 3D over 2D differentiation” value [2] was “an order of magnitude induction”, the “Phase I differentiation under H1 conditions” value ([3]; 3 μM, 24 hour treatment, then 24 hours RPMI-B27) was “very inefficient” and the “FOXA2 positive cells at Phase I endpoint” value [3, 6] was 81%-84%. For the same compound, the “SOX17 positive cells at Phase I endpoint” value [3, 6] was 79%-82%, the “Optimal concentration for Phase I differentiation” value ([3]; titration 1-10 μM in RPMI-B27±insulin, optimum in RPMI-B27 minus insulin) was 4 µM and the “Time to rapid upregulation of NODAL after exposure” value (hESC line H1 [4]; 3 μM) was ≤ 4 h. For the same compound, the “SOX7 levels (primitive endoderm marker) during Phase I” value (hESC line H1 [4]; 3 μM 24 hour, then 24 hours RPMI-B27) was “No upregulation” and the “Expression … by immunofluorescence” value (hESC line H1 [1]) was “equivalent co-expression”.

In the case of C[C@@H]1C[C@H]2[C@@H]3CCC4=CC(=O)C=C[C@]4(C)[C@@]3(F)[C@@H](O)C[C@]2(C)[C@@]1(O)C(=O)CO [DEX, dexamethasone], the “Optimal concentration for hepatic maturation” value (hepatic progenitors) is reported as 100 nM.

In the case of C[S+](C)[O-] [DMSO, Dimethylsulfoxide], the “Efficiency based on AFP/HNF4A co-expression” value [5] is reported as 86%-89%.

CCCCCC(=O)N[C@@H](Cc1ccc(O)cc1)C(=O)N[C@H](C(=O)NCCCCCC(N)=O)[C@@H](C)CC [Dihexa, N-hexanoic-Tyr, Ile-(6) aminohexanoic amide] (Hexanoyl-Tyr-Ile-[Ahx]-NH2) was tested, and the “Optimal concentration for hepatic maturation” value (hepatic progenitors) was 100 nM.

For COc1ccc2[nH]c([S+]([O-])Cc3ncc(C)c(OC)c3C)nc2c1 (stereo not drawn) [Omeprazole], the “Induction of CYP1A2 activity in smHLCs” value (CYP1A2) was “significant induction”.

In the case of CC1(C)C(/C=C/C=C/C=C/C=C2\N(CCCCS(=O)(=O)O)c3ccc4ccccc4c3C2(C)C)=[N+](CCCCS(=O)(=O)[O-])c2ccc3ccccc3c21 [indocyanine green], the “Cellular uptake in smHLCs” value (H1 smHLCs) is reported as “ICG positive cells were clearly visible”.

With Wnt3a the “Expression … by immunofluorescence” value (hESC line H1 [1]) was “sufficient to produce populations of cells that expressed the DE markers FOXA2 and SOX17”.
